Laboratory results: patent US9387218B2, “Composition for the treatment of inflammatory and immune disorders” (EAGLEPHARMA PTY LTD, priority 2012, dated 2016)

Experiments:
osteoarthritis = conditions: literature study; cited from earlier work
[1] = tested on: seasonal allergic rhinitis; conditions: oral, 2600 mg to 5200 mg per day; cited from earlier work
murine macrophages = conditions: in vitro; cited from earlier work
Solar Keratosis = experiment: Summary of treatments: Solar Keratosis; type: in vivo, human; design: key: The + values in the table represent a qualitative assessment of the treatment of symptoms in the patient groups tests; ++: The + values in the table represent a qualitative assessment of the treatment of symptoms in the patient groups tests; +++: The + values in the table represent a qualitative assessment of the treatment of symptoms in the patient groups tests; ++++: The + values in the table represent a qualitative assessment of the treatment of symptoms in the patient groups tests; +++++: 5+ indicating the greatest improvement in symptoms; conditions: patient groups
psoriasis = experiment: Summary of treatments: Psoriasis; type: in vivo, human; design: key: The + values in the table represent a qualitative assessment of the treatment of symptoms in the patient groups tests; ++: The + values in the table represent a qualitative assessment of the treatment of symptoms in the patient groups tests; +++: The + values in the table represent a qualitative assessment of the treatment of symptoms in the patient groups tests; ++++: The + values in the table represent a qualitative assessment of the treatment of symptoms in the patient groups tests; +++++: 5+ indicating the greatest improvement in symptoms; conditions: patient groups
chondrocytes = conditions: in vitro; cited from earlier work
TNF-α production = conditions: in vitro; cited from earlier work

Q: What does the source list for `CS(C)(=O)=O` [MSM, Methylsulphonylmethane]?
A: effect in osteoarthritis (osteoarthritis): analgesic and anti-inflammatory effect; symptoms associated with seasonal allergic rhinitis [1]: may reduce symptoms; effect in murine macrophages (release of pro-inflammatory cytokines) (murine macrophages): anti-inflammatory effect

Q: What does the source list for `NC(=O)c1cccnc1` [Nicotinamide oral (NC), nicotinamide]?
A: qualitative assessment of the treatment of symptoms: Solar Keratosis (Solar Keratosis): +; qualitative assessment of the treatment of symptoms: Psoriasis (psoriasis): +

Q: Which effect in osteoarthritis (osteoarthritis) does the source give for `N[C@H]1C(O)O[C@H](CO)[C@@H](O)[C@@H]1O` (some centres unmarked) [glucosamine] here?
A: may improve the symptoms

Q: And the “synthesis of proinflammatory mediators in chondrocytes” value (chondrocytes)?
A: inhibits the synthesis of proinflammatory mediators

Q: Which “immunomodulatory action, possibly by inhibiting TNF-α production” value (TNF-α production) does the source give for `NCC(=O)O` [glycine] here?
A: immunomodulatory action
